Data: article PMC7186840, “Chemical‐Shift Perturbations Reflect Bile Acid Binding to Norovirus Coat Protein: Recognition Comes in Different Flavors” (Chembiochem, 2019)

Key:
GII.4 Saga P dimers [1] = target: T1, GII.4 Saga P dimers (Norovirus Hu/GII-4/Saga4/2006/JP, UniProt B5BTR7); assay: 1H, […] TROSY HSQC CSP; assay type: binding; conditions: 2 mM ligand, pH 7.3, 298 K; same site as CA
T1 construct: isotope-labelled, non-deamidated

GII.10 Vietnam026 VLPs = target: T2, GII.10 Vietnam026 VLPs (Norwalk virus, UniProt Q5F4T5); assay: STD NMR titration, single saturation time […] s; assay type: binding
T2 construct: virus-like particles of VP1, arginine tail present; donated by G. Hansman

GII.17 Kawasaki308 VLPs = target: T3, GII.17 Kawasaki308 VLPs (Norovirus Hu/GII/JP/2015/GII.P17_GII.17/Kawasaki308, UniProt A0A0E4B1P1); assay: STD NMR titration, single saturation time […] s; assay type: binding
T3 construct: gene VP1; virus-like particles of VP1, arginine tail present; donated by G. Hansman

GII.7 RKI VLPs = target: T4, GII.7 RKI VLPs (Norovirus Hu/GII.7/VLP 05G954/2005/DE, UniProt S5GGK6); assay: STD NMR titration, single saturation time […] s; assay type: binding
T4 construct: virus-like particles of VP1, arginine tail present; gift of S. Taube

GII.4 Ast6139 VLPs = target: T5, GII.4 Ast6139 VLPs (Norwalk virus, UniProt Q70ET2); assay: STD NMR titration, single saturation time […] s; assay type: binding
T5 construct: virus-like particles of VP1, arginine tail present; donated by F. Parra

GII.17 Saitama/T87 VLPs = target: T6, GII.17 Saitama/T87 VLPs (Norovirus GII/Hu/JP/2002/GII.P16_GII.17/Saitama/T87, UniProt A0A076JB57); assay: biochemical; parameters: STD NMR titration of norovirus VLPs with cholic acid, single saturation time 2 s; apparent KD from STD-AF
T6 construct: gene VP1; virus-like particles of VP1, arginine tail present; donated by G. Hansman
Method: Samples containing VLPs were prepared at 0.41 to 1 mg mL^−1 VP1 concentration (6.9 to 17.7 μM binding sites) in PBS pH 7.3, 100 μM [D6]DSS, 0.02 % NaN3 and 10 % D2O. […] Bile acid stock solution were prepared as described above for backbone chemical shift perturbation experiments. For N373D Saga P dimers, one sample containing 45 μM P dimers, 100 μM [D6]DSS in 20 mM fully deuterated sodium phosphate buffer (pH 7.45) was prepared and titrated with CA up to a final concentration of 12 mM. […] In one set of experiments we performed titrations at single saturation times of 2 s15 (cf. Figure S5 and Table S1). Another titration experiment made use of initial STD growth rates16 determined from STD build up curves (Figure S6 and Table S2). The initial growth rates were also used to derive a binding epitope for CA (Figures 2 and S3). The apparent K D values obtained are similar, with the value resulting from initial growth rates being slightly smaller, as expected.

GI.1 Norwalk VLPs = target: T7, GI.1 Norwalk VLPs (Norovirus GI, UniProt A0A1S5QJB8); assay: STD NMR titration, single saturation time […] s; assay type: binding; conditions: read-out: K D app; pH 7.3, 277 K, 10 % D2O; apparent, ligand aggregation
T7 construct: virus-like particles of VP1, arginine tail present; donated by G. Hansman

[2] = target: T8, GII.17 Kawasaki308 P dimers (Norovirus Hu/GII/JP/2015/GII.P17_GII.17/Kawasaki308, UniProt A0A0E4B1P1); assay: methyl TROSY CSP titration; assay type: binding
T8 construct: gene VP1; MIL(ProS)V(ProS)A methyl-labelled
Source text: methyl TROSY CSP titration on GII.17 Kawasaki308 P dimers

GII.4 Saga VLPs [3] = target: T9, GII.4 Saga VLPs (Norovirus Hu/GII-4/Saga4/2006/JP, UniProt B5BTR7); assay: biochemical; parameters: STD NMR titration of norovirus VLPs with cholic acid; apparent KD from initial STD growth rates
T9 construct: virus-like particles of VP1, arginine tail present; donated by G. Hansman
Method: Samples containing VLPs were prepared at 0.41 to 1 mg mL^−1 VP1 concentration (6.9 to 17.7 μM binding sites) in PBS pH 7.3, 100 μM [D6]DSS, 0.02 % NaN3 and 10 % D2O. […] Bile acid stock solution were prepared as described above for backbone chemical shift perturbation experiments. For N373D Saga P dimers, one sample containing 45 μM P dimers, 100 μM [D6]DSS in 20 mM fully deuterated sodium phosphate buffer (pH 7.45) was prepared and titrated with CA up to a final concentration of 12 mM. with STD‐AFmax being the maximum STD‐AF for a given proton, k sat the saturation rate constant, and t sat the saturation time. Initial slopes STD‐AF0 were obtained from STD‐AF0=STD‐AFmax k sat, and were plotted as a function of the ligand concentration. Fitting Equation (1) to the resulting binding isotherms delivered dissociation constants K D. For curve fitting Origin2016G (OriginLab) was used. To compare P dimers to viral capsids, we also obtained STD NMR titration curves for CA binding to GII.4 Saga VLPs (Figure 3 D; Table 1, No. 5 and 6). In one set of experiments we performed titrations at single saturation times of 2 s15 (cf. Figure S5 and Table S1). Another titration experiment made use of initial STD growth rates16 determined from STD build up curves (Figure S6 and Table S2). The initial growth rates were also used to derive a binding epitope for CA (Figures 2 and S3). […]

GII.4 MI001 P dimers = target: T10, GII.4 MI001 P dimers (Norovirus Hu/GII.4/MI001/2011/USA, UniProt S5FWF8); assay: 1H, […] TROSY HSQC CSP titration; assay type: binding
T10 construct: [U-2H,15N]-labelled

GII.4 Saga P dimers [4] = target: T1, GII.4 Saga P dimers; assay: 1H, […] TROSY HSQC CSP titration; assay type: binding
GII.4 Saga VLPs [5] = target: T9, GII.4 Saga VLPs; assay: STD NMR titration, single saturation time […] s; assay type: binding
GII.4 Saga VLPs [6] = target: T9, GII.4 Saga VLPs; assay: STD NMR; assay type: binding; conditions: pH 7.3, 277 K

Structure (SMILES): C[C@H](CCC(=O)O)[C@H]1CC[C@H]2[C@@H]3[C@H](O)C[C@@H]4C[C@H](O)CC[C@]4(C)[C@H]3CC[C@]12C [CDCA, chenodeoxycholic acid]
- 1H,15N TROSY HSQC CSP (GII.4 Saga P dimers [1]): Binding of DCA, GCDCA, and CDCA yields very similar CSPs reflecting binding to the same site

Structure (SMILES): C[C@H](CCC(=O)O)[C@H]1CC[C@H]2[C@@H]3CC[C@@H]4C[C@H](O)CC[C@]4(C)[C@H]3C[C@H](O)[C@]12C [DCA, deoxycholic acid]
- 1H,15N TROSY HSQC CSP (GII.4 Saga P dimers [1]): Binding of DCA, GCDCA, and CDCA yields very similar CSPs reflecting binding to the same site

Structure (SMILES): C[C@H](CCC(=O)O)[C@H]1CC[C@H]2[C@@H]3[C@H](O)C[C@@H]4C[C@H](O)CC[C@]4(C)[C@H]3C[C@H](O)[C@]12C [CA, cholic acid]
- Kd (GII.10 Vietnam026 VLPs): 12.9 ± 2.9 mM
- Kd (GII.17 Kawasaki308 VLPs): 31.5 ± 2.8 mM
- Kd (GII.7 RKI VLPs): 10.9 ± 4.3 mM
- Kd (GII.4 Ast6139 VLPs): 26.5 ± 8 mM
- Kd (GII.17 Saitama/T87 VLPs): 6.6 ± 0.4 mM
- Kd (GI.1 Norwalk VLPs): 12.2 ± 1.8 mM
- Kd [2]: 20.1 ± 2.9 mM
- Kd (GII.4 Saga VLPs [3]): 3.6 ± 0.7 mM
- Kd (GII.4 MI001 P dimers): 11.1 ± 0.9 mM
- Kd (GII.4 Saga P dimers [4]): 10 ± 0.6 mM
- Kd (GII.4 Saga VLPs [5]): 4.7 ± 0.4 mM

Structure (SMILES): CC1(C)[C@@H](O[C@H]2O[C@H](C(=O)O)[C@@H](O)[C@H](O)[C@H]2O[C@@H]2O[C@H](C(=O)O)[C@@H](O)[C@H](O)[C@H]2O)CC[C@]2(C)[C@H]3C(=O)C=C4[C@@H]5C[C@@](C)(C(=O)O)CC[C@]5(C)CC[C@@]4(C)[C@]3(C)CC[C@@H]12 [GR, glycyrrhizic acid]
- Kd (GII.4 Saga P dimers [4]): 13.8 ± 0.4 mM

Structure (SMILES): C[C@H](CCC(=O)NCC(=O)O)[C@H]1CC[C@H]2[C@@H]3[C@H](O)C[C@@H]4C[C@H](O)CC[C@]4(C)[C@H]3C[C@H](O)[C@]12C [GCA, sodium glycocholate hydrate]
- STD NMR (GII.4 Saga VLPs [6]; 1 mM ligand in presence of TCDCA (1 mM)): In each case STD NMR spectra indicate binding of bile acids to VLPs

Structure (SMILES): C[C@H](CCC(=O)NCC(=O)O)[C@H]1CC[C@H]2[C@@H]3[C@H](O)C[C@@H]4C[C@H](O)CC[C@]4(C)[C@H]3CC[C@]12C [GCDCA, glycochenodeoxycholic acid]
- Kd (GII.4 Saga P dimers [4]): 1.5 ± 0.3 mM

Structure (SMILES): C[C@H](CCC(=O)NCCS(=O)(=O)O)[C@H]1CC[C@H]2[C@@H]3[C@H](O)C[C@@H]4C[C@H](O)CC[C@]4(C)[C@H]3CC[C@]12C [TCDCA, sodium taurochenodeoxycholate]
- STD NMR (GII.4 Saga VLPs [6]; 1 mM ligand in presence of GCA (1 mM)): In each case STD NMR spectra indicate binding of bile acids to VLPs
